Measured values taken from US20240319156A1, “DEVICE FOR TESTING VAPORIZABLE FLUIDS IN A HUMAN AIRWAY MODEL” (Rowan University, priority 2022, published 2024).

System: human airway model tissue
Conditions: e-cigarette vapor exposure day 20 to day 34; vs untreated 'no battery' tissue
Source text: The investigation compared how human airway model tissue was affected by e-cigarette vapors generated from two different vape-liquids, propylene glycol/vegetable glycerin ‘PG:VG’, and vitamin E acetate ‘VEA’.
Referring to FIGS. 30A-30B, illustration of experimental design used in research investigation, human airway model tissues were formed from day 0 to day 20, tissues were exposed to experimental vapors from day 20 to day 34.

CC(=O)Oc1c(C)c(C)c2c(c1C)CCC(C)(CCC[C@H](C)CCC[C@H](C)CCCC(C)C)O2 (stereo partly shown) [VEA, vitamin E acetate]
tissue morphology in stained cross-sections: present typical structure and are undamaged
